In this assay the target is T1, recombinant human AMPK complex, containing α2β1γ2 (Homo sapiens, UniProt P54646+Q9Y478).
T1 construct: hsAMPKα2-552-His, hsAMPKβ1-2-270 and hsAMPKγ-2-569 respectively; hsAMPKβ1-2-270; hsAMPKγ-2-569; His (C); made in house; host or cells: Spodoptera frugiperda Sf21 (baculovirus)
The experiment in a line: AMPK in vitro activation assay (HTRF). Type of assay: biochemical. The settings on record: for EC50: HTRF, recombinant human α2β1γ2 AMPK, 200 μM ATP, biotinylated ACC-CREBp peptide, repeat determinations on separate lines; for Emax: potentiation of AMPK activity as percent over the basal signal (without compound). The essentials:
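HTRF phosphorylation read-out (Eu-cryptate anti-pS133-CREB, streptavidin-XL665) after a 45 min, 37° C kinase step. This step was initiated by a solution with 200 μM ATP and 2 or 0.08 μM biotinylated ACC-CREBp peptide. Beforehand, compound sat 30 min at room temperature with baculovirus/Sf21 α2β1γ2 in pH 7.0 HEPES buffer; EC50 derived from activation over basal.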

“And” between values parts separate entries of the source, which are not always exact repeats. Identical values can stand only once. Counter-ions that a name gives are not always drawn.

T1 sequence (P54646 2-552): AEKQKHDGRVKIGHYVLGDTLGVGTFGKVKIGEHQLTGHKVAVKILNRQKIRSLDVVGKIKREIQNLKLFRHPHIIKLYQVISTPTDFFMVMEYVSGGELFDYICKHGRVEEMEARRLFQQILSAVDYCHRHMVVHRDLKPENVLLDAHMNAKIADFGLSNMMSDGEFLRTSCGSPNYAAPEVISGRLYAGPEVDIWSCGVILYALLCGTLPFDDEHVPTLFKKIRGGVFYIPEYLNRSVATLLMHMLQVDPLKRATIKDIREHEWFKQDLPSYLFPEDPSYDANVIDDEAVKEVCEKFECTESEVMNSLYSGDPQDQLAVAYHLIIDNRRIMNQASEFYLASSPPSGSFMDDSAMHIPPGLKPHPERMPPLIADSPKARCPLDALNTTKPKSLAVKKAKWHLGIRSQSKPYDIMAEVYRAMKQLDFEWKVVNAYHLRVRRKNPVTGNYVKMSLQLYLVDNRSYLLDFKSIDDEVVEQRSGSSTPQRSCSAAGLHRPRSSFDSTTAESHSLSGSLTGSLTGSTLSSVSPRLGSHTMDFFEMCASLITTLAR
T1 sequence (Q9Y478 2-270): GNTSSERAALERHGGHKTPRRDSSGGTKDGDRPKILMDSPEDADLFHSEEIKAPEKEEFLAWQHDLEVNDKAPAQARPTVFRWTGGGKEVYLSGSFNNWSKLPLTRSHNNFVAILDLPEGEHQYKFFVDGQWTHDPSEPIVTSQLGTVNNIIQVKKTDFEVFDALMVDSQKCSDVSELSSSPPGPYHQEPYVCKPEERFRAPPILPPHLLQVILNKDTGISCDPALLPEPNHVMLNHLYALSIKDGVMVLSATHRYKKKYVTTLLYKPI
T1 sequence (Q9UGJ0 2-569 partner limits assumed): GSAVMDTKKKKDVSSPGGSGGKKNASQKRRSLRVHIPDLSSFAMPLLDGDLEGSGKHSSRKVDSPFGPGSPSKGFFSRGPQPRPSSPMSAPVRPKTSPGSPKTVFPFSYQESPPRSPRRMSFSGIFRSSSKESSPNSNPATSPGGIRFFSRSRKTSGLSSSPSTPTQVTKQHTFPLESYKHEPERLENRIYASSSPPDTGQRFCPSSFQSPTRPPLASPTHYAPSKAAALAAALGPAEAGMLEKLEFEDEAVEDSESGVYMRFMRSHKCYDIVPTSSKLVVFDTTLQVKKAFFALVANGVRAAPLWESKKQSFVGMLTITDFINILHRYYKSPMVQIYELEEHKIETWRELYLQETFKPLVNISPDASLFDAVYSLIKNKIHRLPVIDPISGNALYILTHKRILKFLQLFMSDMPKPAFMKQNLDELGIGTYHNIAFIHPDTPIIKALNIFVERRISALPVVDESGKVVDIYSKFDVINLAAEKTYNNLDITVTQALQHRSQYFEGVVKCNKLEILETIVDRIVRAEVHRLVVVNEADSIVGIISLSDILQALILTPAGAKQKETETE

With `COc1cc(C(O)=C2C(=O)Nc3cc(F)c(-c4ccc(C5(CO)CC5)cc4)cc32)on1` [Compound 118, 6-fluoro-3-[hydroxy-(3-methoxyisoxazol-5-yl)methylene]-5-[4-[1-(hydroxymethyl)cyclopropyl]phenyl]indolin-2-one], the concentration for a half-maximal effect (EC50) was found to be 0.5 nM and the maximal effect (Emax) was found to be 133%.

As to `O=C1Nc2cc(F)c(-c3ccc(C4(CO)CC4)cc3)cc2C1=C(O)c1cc(C2CC2)no1` [Compound 119, 3-[(3-cyclopropylisoxazol-5-yl)hydroxy-methylene]6-fluoro-5-[4-[1-(hydroxymethyl)cyclopropyl]phenyl]indolin-2-one], the concentration giving a half-maximal response (EC50) amounted to 0.6 nM and the Emax turned out to be 133%.

`O=C1Nc2cc(F)c(-c3ccc(C4(CO)CC4)cc3)c(F)c2C1=C(O)c1cc(C2CC2)no1` [Compound 120, 3-[(3-cyclopropylisoxazol-5-yl)hydroxy-methylene]-4,6-difluoro-5-[4-[1-(hydroxymethyl)cyclopropyl]phenyl]indolin-2-one]: the EC50 turned out to be 0.2 nM and the Emax came to 169%.

For `COc1cc(C(O)=C2C(=O)Nc3cc(Cl)c(-c4ccc(C(CO)CO)cc4)cc32)on1` [Compound 121, 6-chloro-5-[4-[2-hydroxy-1-(hydroxymethyl)ethyl]phenyl]-3-[hydroxy-(3-methoxyisoxazol-5-yl)methylene]indolin-2-one], the EC50 came out at 4 nM and the maximum response (Emax) was found to be 172%.

In the case of `COc1cc(C(O)=C2C(=O)Nc3cc(Cl)c(-c4ccc(C(O)CO)cc4)cc32)on1` (centres unmarked) [Compound 122, 6-chloro-5-[4-(1,2-dihydroxyethyl)phenyl]-3-[hydroxy-(3-methoxyisoxazol-5-yl)methylene]indolin-2-one], the 50% effective concentration (EC50) was found to be 7 nM and the maximal effect (Emax) was determined as 172%.

`Cc1ccc(C(O)=C2C(=O)Nc3cc(Cl)c(-c4ccc(C5(CO)CC5)cc4)cc32)s1` [Compound 123, 6-chloro-5-[4-[1-(hydroxymethyl)cyclopropyl]phenyl]-3-[hydroxy-(5-methyl-2-thienyl)methylene]indolin-2-one]: the half-maximal effective concentration (EC50) amounted to 0.4 nM and the Emax is 272%.

In the case of `COc1cc(C(O)=C2C(=O)Nc3cc(Cl)c(-c4ccc(OC5CCN(C)CC5)cc4)cc32)on1` [Compound 124, 6-chloro-3-[hydroxy-(3-methoxyisoxazol-5-yl)methylene]-5-[4-[(1-methyl-4-piperidyl)oxy]phenyl]indolin-2-one hydrochloride], the EC50 turned out to be 25 nM and the maximal effect (Emax) was 231%.

`COc1ccc(C(O)=C2C(=O)Nc3cc(F)c(-c4ccc(C5(CO)CC5)cc4)cc32)cc1F` [Compound 125, 6-fluoro-3-[(3-fluoro-4-methoxy-phenyl)hydroxy-methylene]-5-[4-[1-(hydroxymethyl)cyclopropyl]phenyl]indolin-2-one]: the half-maximal effective concentration (EC50) came to 0.2 nM and the maximal response (Emax) amounted to 230%.

Regarding `O=C1Nc2cc(Cl)c(-c3ccc(C4(CO)CC4)cc3)cc2C1=C(O)c1ccco1` [Compound 126, 6-chloro-3-[2-furyl(hydroxy)methylene]-5-[4-[1-(hydroxymethyl)cyclopropyl]phenyl]indolin-2-one], the concentration for a half-maximal effect (EC50) stood at 0.3 nM and the Emax was 295%.

Regarding `COc1cc(C(O)=C2C(=O)Nc3cc(Cl)c(-c4ccc(N(C)C)cc4)cc32)on1` [Compound 127, 6-chloro-5-(4-dimethylaminophenyl)-3-[hydroxy-(3-methoxyisoxazol-5-yl)methylene]indolin-2-one], the maximum response (Emax) amounted to 296%.

Consider `COc1cc(C(O)=C2C(=O)Nc3cc(Cl)c(-c4ccc(OC5CCOCC5)cc4)cc32)on1` [Compound 128, 6-chloro-3-[hydroxy-(3-methoxyisoxazol-5-yl)methylene]-5-(4-tetrahydropyran-4-yloxyphenyl)indolin-2-one], for which the EC50 is 52 nM and the maximal effect (Emax) amounted to 288%.

Consider `COc1cc(C(O)=C2C(=O)Nc3cc(Cl)c(-c4ccc(OCCCO)cc4)cc32)on1` [Compound 129, 6-chloro-3-[hydroxy-(3-methoxyisoxazol-5-yl)methylene]-5-[4-(3-hydroxypropoxy)phenyl]indolin-2-one], for which the EC50 was 20 nM and 10 nM.

On to `O=C1Nc2cc(Cl)c(-c3ccc(C4(CO)CC4)cc3)cc2C1=C(O)c1ccc(Cl)s1` [Compound 130, 6-chloro-3-[(5-chloro-2-thienyl)hydroxy-methylene]-5-[4-[1-(hydroxymethyl)cyclopropyl]phenyl]indolin-2-one], for which the concentration giving a half-maximal response (EC50) was found to be 9 nM and the Emax was determined as 373%.

As to `COCCCOc1ccc(-c2cc3c(cc2Cl)NC(=O)C3=C(O)c2cc(OC)no2)cc1` [Compound 131, 6-chloro-3-[hydroxy-(3-methoxyisoxazol-5-yl)methylene]-5-[4-(3-methoxypropoxy)phenyl]indolin-2-one], the 50% effective concentration (EC50) is 33 nM and 86 nM.

As to `Cc1cc(C(O)=C2C(=O)Nc3cc(Cl)c(-c4ccc(OCC5COC5)cc4)cc32)on1` [Compound 132, 6-chloro-3-[hydroxy-(3-methylisoxazol-5-yl)methylene]-5-[4-(oxetan-3-ylmethoxy)phenyl]indolin-2-one], the EC50 came to 49 nM and the maximal effect (Emax) was determined as 364%.

Take `COc1cc(C(O)=C2C(=O)Nc3cc(Cl)c(-c4ccc(C5CCN(C)C5)cc4)cc32)on1` (centres unmarked) [Compound 133, 6-chloro-3-[hydroxy-(3-methoxyisoxazol-5-yl)methylene]-5-[4-(1-methylpyrrolidin-3-yl)phenyl]indolin-2-one hydrochloride]: the concentration giving a half-maximal response (EC50) turned out to be 14 nM and the maximal effect (Emax) came to 397%.

As to `COc1cc(C(O)=C2C(=O)Nc3cc(Cl)c(-c4ccc(C5CCNC5)cc4)cc32)on1` (centres unmarked) [Compound 134, 6-chloro-3-[hydroxy-(3-methoxyisoxazol-5-yl)methylene]-5-(4-pyrrolidin-3-ylphenyl)indolin-2-one hydrochloride], the EC50 worked out at 9 nM and the Emax was found to be 394%.

For `COc1cc(C(O)=C2C(=O)Nc3cc(Cl)c(-c4ccc(C5CC(O)C5)cc4)cc32)on1` (centres unmarked) [Compound 135, 6-chloro-5-[4-(3-hydroxycyclobutyl)phenyl]-3-[hydroxy-(3-methoxyisoxazol-5-yl)methylene]indolin-2-one], the 50% effective concentration (EC50) turned out to be 9 nM and the Emax is 319%.

`COc1cc(C(O)=C2C(=O)Nc3cc(Cl)c(-c4ccc(OCc5cncs5)cc4)cc32)on1` [Compound 136, 6-chloro-3-[hydroxy-(3-methoxyisoxazol-5-yl)methylene]-5-[4-(thiazol-5-ylmethoxy)phenyl]indolin-2-one]: the half-maximal effective concentration (EC50) turned out to be 26 nM and the maximal response (Emax) is 309%.

Turning to `COc1cc(C(O)=C2C(=O)Nc3cc(Cl)c(-c4ccc(N5CCCC5)cc4)cc32)on1` [Compound 137, 6-chloro-3-[hydroxy-(3-methoxyisoxazol-5-yl)methylene]-5-(4-pyrrolidin-1-ylphenyl)indolin-2-one], the concentration for a half-maximal effect (EC50) worked out at 16 nM and the Emax came to 271%.

As for `COc1ccc(C(O)=C2C(=O)Nc3cc(Cl)c(-c4ccc(N5CCOCC5)cc4)cc32)nc1` [Compound 140, 6-chloro-3-[hydroxy-(5-methoxy-2-pyridyl)methylene]-5-(4-morpholinophenyl)indolin-2-one], the concentration for a half-maximal effect (EC50) came to 21 nM and the Emax was determined as 227%.

`O=C1Nc2cc(Cl)c(-c3ccc(C4(CO)CC4)cc3)cc2C1=C(O)c1ccc(F)cc1F` [Compound 141, 6-chloro-3-[(2,4-difluorophenyl)hydroxy-methylene]-5-[4-[1-(hydroxymethyl)cyclopropyl]phenyl]indolin-2-one]: the 50% effective concentration (EC50) was determined as 2 nM and the maximal effect (Emax) was found to be 229%.

Take `O=C1Nc2cc(Cl)c(-c3ccc(C4(CO)CC4)cc3)cc2C1=C(O)c1cncc(F)c1` [Compound 142, 6-chloro-3-[(5-fluoro-3-pyridyl)hydroxy-methylene]-5-[4-[1-(hydroxymethyl)cyclopropyl]phenyl]indolin-2-one]: the concentration for a half-maximal effect (EC50) amounted to 6 nM and the Emax was 239%.

As for `O=C1Nc2cc(Cl)c(-c3ccc(C4(CO)CC4)cc3)cc2C1=C(O)c1ccc(F)c(F)c1` [Compound 143, 6-chloro-3-[(3,4-difluorophenyl)hydroxy-methylene]-5-[4-[1-(hydroxymethyl)cyclopropyl]phenyl]indolin-2-one], the EC50 came out at 3 nM and the Emax stood at 230%.

As for `O=C1Nc2cc(Cl)c(-c3ccc(C4(CO)CC4)cc3)cc2C1=C(O)c1cc(F)cc(F)c1` [Compound 144, 6-chloro-3-[(3,5-difluorophenyl)hydroxy-methylene]-5-[4-[1-(hydroxymethyl)cyclopropyl]phenyl]indolin-2-one], the concentration for a half-maximal effect (EC50) worked out at 0.9 nM and the Emax is 210%.

On to `COc1cc(C(O)=C2C(=O)Nc3cc(Cl)c(-c4cnc(N(C)C)nc4)cc32)on1` [Compound 145, 6-chloro-5-[2-(dimethylamino)pyrimidin-5-yl]-3-[hydroxy-(3-methoxyisoxazol-5-yl)methylene]indolin-2-one], for which the concentration giving a half-maximal response (EC50) turned out to be 95 nM and the Emax stood at 257%.

Consider `COc1cc(C(O)=C2C(=O)Nc3cc(Cl)c(-c4ccc(N(C)C)nc4)cc32)on1` [Compound 146, 6-chloro-5-[6-(dimethylamino)-3-pyridyl]-3-[hydroxy-(3-methoxyisoxazol-5-yl)methylene]indolin-2-one], for which the EC50 turned out to be 88 nM and the maximum response (Emax) amounted to 278%.

For `COc1cc(C(O)=C2C(=O)Nc3cc(Cl)c(-c4ccc(N(C)C)c(F)c4)cc32)on1` [Compound 147, 6-chloro-5-[4-(dimethylamino)-3-fluoro-phenyl]-3-[hydroxy-(3-methoxyisoxazol-5-yl)methylene]indolin-2-one], the 50% effective concentration (EC50) was 15 nM and the maximal effect (Emax) was found to be 267%.

The values above are taken from patent US10077237B2 (Sanofi, priority 2013, dated 2018).
